Results on four compounds are retold here after patent US20100081631A1, “METHODS AND COMPOSITIONS FOR TREATING GASTROINTENSTIAL DISORDERS” (priority 2006, published 2010).

In series [1] the test system is PI3k/Akt pathway (Akt phosphorylation) in IEC-18 cells. The experiment in a line: Akt phosphorylation Western blot in IEC-18 cell lysates. The following applies: 24 hours; for Akt phosphorylation: 5 μM SC-560, 10 μM celecoxib or 10 μM indomethacin. Type of series: cell-based, rat. Here is the method:
Rat intestinal epithelial cells (IEC-18 cells) are immortalized normal epithelial cells purchased from the American Type Culture Collection (ATCC). For these experiments, IEC-18 cells were cultured in high glucose Delbecco's Modified Eagle's Medium (DMEM) at 37° C. under 5% CO2 and incubated for 24 hours with either a) 5 μM of the COX-1 inhibitor SC-560 (purchased from Sigma-Aldrich, St. Louis, Mo.), 10 μM of the COX-2 inhibitor celecoxib, or 10 μM of the COX-½ inhibitor indomethacin. Drugs were provided in a 0.1% dimethylsulfoxide (DMSO) vehicle.
The PI3k/Akt pathway is monitored using the following general assay procedure. Following incubation cell lysates are collected with lysis buffer containing phosphatase and proteinase inhibitors. The supernanats are collected and protein concentrations are measured. Then SDS(sodium dodecyl sulfate) sample buffers are made to make sure final protein concentration is equal in each sample and boiled for minutes at 100° C. Then the samples are loaded on to a 4%-12% pre-made SDS-PAGE (polyacrylamide gel electrophoresis) and the gel is developed under electrophoresis. When the samples reach the bottom of the gel, the gel is removed from the electrophoresis equipment and transferred to a nitrocellulose membrane and the membrane blocked with milk. The membrane is incubated with a primary antibody selective for either a) total Akt or b) phosphrylated Akt overnight at 4° C. A secondary antibody having a conjugated horseradish peroxidase (HRP) moiety is used to bind the constant regions of the primary antibodies. The membrane is washed under conditions favoring selective antibody binding. Finally, the HRP is detected using a enzymatically initiated chemiluminescent substrate such as Super Signal® ELISA Pico Substrates, available from Thermo Fisher Scientific.

In series [2] the test system is C57BL/6 mice. The experiment in a line: Acetic acid-induced gastric ulcer model in mice. Format: in vivo. An excerpt:
Gastric ulcers were produced in C57BL/6 mice by using 40% acetic acid as follows. Animals were anesthetized. The abdomen of each animal was surgically opened, and the stomach exposed. A 3 mm curette was placed onto the anterior surface of each stomach. A solution of 40% acetic acid was placed inside the curette. The curette prevents damage to surrounding tissue. The acetic acid treatment causes damage to blood vessels of the stomach, producing chemical death to the mucous layer.
On the third day following induction of ulceration, the animals were given various treatments by oral gavage. First, vehicle (4% DMSO-corn oil) or a low dose (3 mg/kg/day) of indomethacin in 4% DMSO-corn oil was used. This dose of indomethacin has been reported not to induce gross lesions on the stomach, although it can inhibit the production of endogenous prostglandin PGE2.
On day 7 blood was withdrawn for hematology analysis from sacrificed animals, and subjected to automated testing for standard hematological parameters. Ulcer areas (defined as the regions of the stomach not covered by stomach mucosal epithelial cells) were measured by dissection microscopy for macroscopic analysis; additionally, the widest section of each ulcer sample was measured and observed as the size index under microscopy. The stomachs were processed for pathological analysis by dissection and section through the widest part of the ulcer. Sections were stained using hematoxylin & eosin.
Mice were then treated with 10 nM Compound 7 or the vehicle under otherwise identical conditions. In this experiment the vehicle was 4% DMSO in corn oil in a volume of 0.1 ml. The mice were sacrificed and the stomachs examined on either the 7th day or the 11th day following ulceration. […] Under dissection microscopy, the areas of the ulcers in mice treated with Compound 7 were 60% and 32% of the control on days 7 and 11, respectively. […] (FIG. 4B).

Series [3] addresses T1, human EP4 prostaglandin receptor (Homo sapiens, UniProt P35408).
T1 construct: expressed in transfected cells; host or cells: HEK-EBNA cells
The experiment in a line: FLIPR Ca++ flux test. Conditions: cells expressing human EP4, read-out: in vitro EC50 (concentration at 50% of maximal efficacy). Type of series: cell-based. The protocol:
HEK-293 (EBNA) cells, stably expressing one type or subtype of recombinant human prostaglandin receptors (prostaglandin receptors expressed: hDP/Gqs5; hEP1; hEP2/Ggs5; hEP3A/Gqi5; hEP4/Ggs5; hFP; hIP; hTP), are cultured in 100 mm culture dishes in high-glucose DMEM medium containing 10% fetal bovine serum, 2 mM 1-glutamine, 250 μg/ml geneticin (G418) and 200 μg/ml hygromycin B as selection markers, and 100 units/ml penicillin G, 100 μg/ml streptomycin and 0.25 μg/ml amphotericin B.
Transfectant cells are seeded at a density of 5×10^4 cells per well in Biocoat®. Poly-D-lysine-coated black-wall, clear-bottom 96-well plates (Becton-Dickinson) and allowed to attach overnight in an incubator at 37° C. Cells are then washed two times with HBSS-HEPES buffer (Hanks Balanced Salt Solution without bicarbonate and phenol red, 20 mM HEPES, pH 7.4) using a Denley Cellwash plate washer (Labsystems). […]
Cells are excited with an Argon laser at 488 nm, and emission measured through a 510-570 nm bandwidth emission filter (FLIPR.™., Molecular Devices, Sunnyvale, Calif.). […] The peak increase in fluorescence intensity is recorded for each well. […] The peak fluorescence change in each drug-containing well is then expressed relative to the controls. […]

The target in series [4] is T1, human EP4 prostaglandin receptor. The experiment in a line: Activity test measuring changes in intracellular cAMP in HEK-EBNA cells. Type of series: cell-based. The following applies: HEK-EBNA cells expressing human EP4, read-out: in vitro EC50 (concentration at 50% of maximal efficacy). The protocol: The dosage of the prostaglandin EP4 agonist component employed in accordance with the present invention varies over a relatively wide range and depends on factors well known in the medicinal arts including, but not limited to: the weight of the individual to whom the agonist component is administered, the general health status/condition of such individual, the disease/condition sought to be treated/prevented by such administration, the severity of such disease/condition in such individual, the potency of the specific EP4 receptor agonist component being administered, the sensitivity of such individual to the specific agonist component being administered, the mode of administration, the age of such individual, the sex of such individual, the pregnancy status of such individual, the other ongoing drug therapies being administered to such individual and the like factors. The compound (Z)-7-{(1R,4S,5R)-5-[(E)-5-(3-chloro-benzo[b]thiophene-2-yl)-3-hydroxy-pent-1-enyl]-4-hydroxy-3,3-dimethyl-2-oxo-cyclopentyl}-hept-5-enoic acid has an in vitro EC50 (concentration at 50% of maximal efficacy) of between 0.03 and 0.1 nM in both the FLIPR® Ca^++ flux test and in an alternate activity test measuring changes in the intracellular concentration of cAMP in HEK-EBNA cells expressing the human EP4 prostaglandin receptor.

The test system of another series is IEC-18 cells. Put plainly: Doxorubicin/celecoxib-induced apoptosis of IEC-18 cells by flow cytometry. Conditions: 48 hours. Format: cell-based, rat. The protocol: IEC-18 cells were cultured in high glucose DMEM containing 10% fetal bovine serum (FBS), 1% penicillin, 1% streptomycin, and 50 unit insulin essentially as indicated in Example 101 for 48 hours in the presence of the 0.05 μg/ml chemotherapy agent doxorubicin to induce apoptosis. In the presence of 10 μM celecoxib (which inhibits endogenous prostaglandin PGE2 expression), apoptosis of doxorubicin-treated IEC-18 cells proceeds within 48 hours at such very low concentrations of doxorubicin. Finally, the cells collected by trypsin were subjected to flow cytometry analysis for identification of the percentage of cells in different stages of the cell cycle.
Cultured cells were prepared for flow cytometry by trypsinization and centrifugation. The cells were then washed with cold phosphate buffered saline solution (PBS), then fixed with cold 70% ethanol overnight. The cells were then again washed with PBS and stained with propidium iodide, a nucleic acid intercalating dye, in the presence of RNase for 30 minutes at room temperature. The cells were then sorted using the buffer provided by Becton-Dickenson, the maker of the flow cytometry equipment.
Additionally, using CellQuest® software (Becton-Dickenson) a quantification of the percent of apoptosis occurring in IEC-18 cells after 48 hours' incubation was performed. […]
A general note: A flow cytometer gives signals particle by particle.

Series [5] concerns C57BL/6 mice. The experiment in a line: Acetic acid-induced gastric ulcer model in mice. Type of series: in vivo. This is another data set of the same source.
The mark [6] stands for this setting: indomethacin 3 mg/kg/day oral gavage, day 7, vs vehicle.
[7] abbreviates: 0.1 mg/kg/d Compound 7 + 3 mg/kg/d indomethacin vs control mice.

T1 sequence (P35408 whole entry): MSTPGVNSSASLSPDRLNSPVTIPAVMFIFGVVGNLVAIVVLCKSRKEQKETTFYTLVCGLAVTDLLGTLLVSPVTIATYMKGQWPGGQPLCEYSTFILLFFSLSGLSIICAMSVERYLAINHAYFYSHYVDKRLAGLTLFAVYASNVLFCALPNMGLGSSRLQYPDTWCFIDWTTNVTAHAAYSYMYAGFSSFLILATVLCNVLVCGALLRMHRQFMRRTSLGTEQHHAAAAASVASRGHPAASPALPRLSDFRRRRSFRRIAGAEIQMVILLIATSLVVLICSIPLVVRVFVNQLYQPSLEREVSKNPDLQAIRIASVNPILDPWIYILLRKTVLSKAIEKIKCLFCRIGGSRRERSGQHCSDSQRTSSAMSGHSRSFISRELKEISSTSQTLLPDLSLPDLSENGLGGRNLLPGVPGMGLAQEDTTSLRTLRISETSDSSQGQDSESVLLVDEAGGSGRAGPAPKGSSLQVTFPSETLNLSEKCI

As for `COc1ccc2c(c1)c(CC(=O)O)c(C)n2C(=O)c1ccc(Cl)cc1` [indomethacin, reference compound], in series [1], the Akt phosphorylation result is on record as “inhibited phosphorylation of Akt to a greater extent that did SC-560 or celecoxib”. Also, the “spontaneous healing of gastric ulcers (gross and microscopic ulcer size)” value in the series on C57BL/6 mice [2] (indomethacin 3 mg/kg/day oral gavage from day 3, day 7, vs vehicle) is “delayed the spontaneous healing of gastric ulcers”. Further, in the series on C57BL/6 mice [2] (setting [6]), the “blood loss at ulcer sites” value is on record as “exacerbate blood loss at ulcer sites” and the “inflammation (lymphocytes in the blood)” value is reported as “exacerbated inflammation”.

As for `CC1(C)C(=O)[C@H](C/C=C\CCCC(=O)O)[C@@H](/C=C/C(O)CCc2sc3ccccc3c2Cl)[C@@H]1O` (stereo partly drawn) [Compound 7, (Z)-7-{(1R,4S,5R)-5-[(E)-5-(3-chloro-benzo[b]thiophene-2-yl)-3-hydroxy-pent-1-enyl]-4-hydroxy-3,3-dimethyl-2-oxo-cyclopentyl}-hept-5-enoic acid], the EC50 in series [3] and in series [4] was 0.03 to 0.1 nM in each case. In addition, the “Akt phosphorylation on co-incubation with indomethacin” value in series [1] (10 nM Compound 7 + 10 μM indomethacin vs indomethacin alone) is reported as “maintained Akt phosphorylation at higher levels”. The percent apoptosis result with IEC-18 cells (10 nM Compound 7 added to 0.05 μg/ml doxorubicin + 10 μM celecoxib) was “approximately 5%”. Also, the “ulcer sizes vs vehicle” value in the series on C57BL/6 mice [2] (10 nM Compound 7, vehicle 4% DMSO in corn oil, day 7 or 11) is recorded as “significantly smaller ulcer sizes”. Also, the “areas of the ulcers under dissection microscopy” value is on record as 60 % of the control with C57BL/6 mice [2] (Compound 7, day 7) and 32 % of the control in the series with C57BL/6 mice [2] (Compound 7, day 11). In addition, in the series with C57BL/6 mice [2] (Compound 7 vs control group), the “inflammatory cell infiltrations and necrotic tissue in granulation tissue” value is listed as “significantly less”. Further, in the series on C57BL/6 mice [2] (Compound 7 vs vehicle, day 7), the “gross and microscopic morphologies of the ulcer tissue” value is “stimulates healing of ulcer and facilitate the removal of necrosis tissue”. In addition, the “hematocrit (HCT)” value with C57BL/6 mice [5] (setting [7]) was “significantly greater”. For the same compound, the “hemoglobin (HGB)” value in the series with C57BL/6 mice [5] (setting [7]) was “significantly greater”. Further, the “number of red blood cells (RBC)” value in the series with C57BL/6 mice [5] (0.1 mg/kg/d Compound 7 + 3 mg/kg/d indomethacin vs control mice, n=20) is listed as “significantly greater”. In addition, the “blood loss (hematology)” value in the series on C57BL/6 mice [5] (0.1 mg/kg/d Compound 7 + 3 mg/kg/d indomethacin vs indomethacin alone) was “significantly less blood loss”.

`COc1ccc(-n2nc(C(F)(F)F)cc2-c2ccc(Cl)cc2)cc1` [SC-560]: the Akt phosphorylation entry in series [1] is reported as “inhibited Akt phosphorylation”.

As to `COc1cccc2c1C(=O)c1c(O)c3c(c(O)c1C2=O)C[C@@](O)(C(=O)CO)C[C@@H]3O[C@H]1C[C@H](N)[C@H](O)[C@H](C)O1` [doxorubicin, reference compound], the percent apoptosis result with IEC-18 cells (0.05 μg/ml doxorubicin with 10 μM celecoxib) is reported as “about 13%”.
